In patent publication EP2193713A1, “Method for fighting animal pests without damaging pollinating insects” (Bayer CropScience AG, priority 2008, dated 2010):
Where two headings read alike, the source gives them in different places.

Assays:
Assay type in all cases: in vivo
Apis mellifera [1] = tested on: Apis mellifera
Description: (§1) Der Test wurde gemäß EPPO (European Plant Protection Organisation) Leitlinie 170 wie folgt durchgeführt:
Die Mortalität von Arbeiterbienen vor dem Bienenstock wird mittels einer Falle für tote Bienen (dead bee trap) bestimmt. Die Falle besteht aus Maschendraht und ist vor dem Bienenstock angebracht. Einzelne, lebende Bienen können die Maschen des Drahts passieren, der Transport toter Bienen durch die Maschen ist nicht möglich, weswegen tote Bienen sich in der Falle ansammeln. Tabelle 1 (siehe auch Figur 1)

Apis mellifera [2] = experiment: Tunnel test / spray application / bees: foraging activity
Description: as §1
Während einer Minute werden in einem abgegrenzten Bereich von 2 x 1 m^2 die Bienen gezählt, die auf Blüten absitzen. Tabelle 3 (siehe auch Figur 3)

Apis mellifera [3] = experiment: Tunnel test / spray application / bees: brood development (share of comb cells); conditions: 75 g a.s./ha
Description: as §1
Über alle Waben eines Bienenstocks wird der jeweilige Anteil an Zellen bestimmt, der durch Pollen, Nektar, Eier, Larven oder Puppen belegt ist bzw. leer ist. […]

[4] = 75 g a.s./ha, -3 DAA (before application)
[5] = 150 g a.s./ha, -3 DAA (before application)

SMILES: O=C1C=C(N(Cc2ccc(Cl)nc2)CC(F)F)CO1 [I-5, 4-{[(6-Chlorpyrid-3-yl)methyl](2,2-difluorethyl)amino}furan-2(5H)-on]
- Zahl toter Arbeiterbienen (Apis mellifera [1]; 75 g a.s./ha, 0 DAA b (15:15 Uhr)): 0
- Zahl toter Arbeiterbienen (Apis mellifera [1]; 75 g a.s./ha, 0 DAA c (17:15 Uhr)): 0,7
- Zahl toter Arbeiterbienen (Apis mellifera [1]; 75 g a.s./ha, 1 DAA): 0
- Zahl toter Arbeiterbienen (Apis mellifera [1]; 75 g a.s./ha, 2 DAA): 0,3
- Zahl toter Arbeiterbienen (Apis mellifera [1]; 75 g a.s./ha, 3 DAA): 0,3
- Zahl toter Arbeiterbienen (Apis mellifera [1]; 75 g a.s./ha, 4 DAA): 3,7
- Zahl toter Arbeiterbienen (Apis mellifera [1]; 75 g a.s./ha, 5 DAA): 0,3
- Zahl toter Arbeiterbienen (Apis mellifera [1]; 75 g a.s./ha, 6 DAA): 4,3
- Zahl toter Arbeiterbienen (Apis mellifera [1]; 75 g a.s./ha, 11 DAA): 0
- Zahl toter Arbeiterbienen (Apis mellifera [1]; [4]): 0,3
- Zahl toter Arbeiterbienen (Apis mellifera [1]; 150 g a.s./ha, 0 DAA b (15:15 Uhr)): 1,3
- Zahl toter Arbeiterbienen (Apis mellifera [1]; 150 g a.s./ha, 0 DAA c (17:15 Uhr)): 0,3
- Zahl toter Arbeiterbienen (Apis mellifera [1]; 150 g a.s./ha, 1 DAA): 0
- Zahl toter Arbeiterbienen (Apis mellifera [1]; 150 g a.s./ha, 2 DAA): 0
- Zahl toter Arbeiterbienen (Apis mellifera [1]; 150 g a.s./ha, 3 DAA): 0
- Zahl toter Arbeiterbienen (Apis mellifera [1]; 150 g a.s./ha, 4 DAA): 1,7
- Zahl toter Arbeiterbienen (Apis mellifera [1]; 150 g a.s./ha, 5 DAA): 0,7
- Zahl toter Arbeiterbienen (Apis mellifera [1]; 150 g a.s./ha, 6 DAA): 2
- Zahl toter Arbeiterbienen (Apis mellifera [1]; 150 g a.s./ha, 11 DAA): 1,7
- Zahl toter Arbeiterbienen (Apis mellifera [1]; [5]): 0,3
- Mortalität von Arbeiterbienen vor dem Bienenstock (Apis mellifera [1]; result in words, tunnel test, spray, I-5 75 und 150 g a.s./ha, Thiamethoxam 50 g a.s./ha): keine Mortalität
- Aktivität der Nahrungssuche, Zahl der Bienen / min / m^2 (Apis mellifera [2]; 75 g a.s./ha, 0 DAA a (09:30 Uhr)): 25,5 Bienen / min / m^2
- Aktivität der Nahrungssuche, Zahl der Bienen / min / m^2 (Apis mellifera [2]; 75 g a.s./ha, 0 DAA c (14:15 Uhr)): 41 Bienen / min / m^2
- Aktivität der Nahrungssuche, Zahl der Bienen / min / m^2 (Apis mellifera [2]; 75 g a.s./ha, 0 DAA e (17:15 Uhr)): 42,7 Bienen / min / m^2
- Aktivität der Nahrungssuche, Zahl der Bienen / min / m^2 (Apis mellifera [2]; 75 g a.s./ha, 1 DAA b (15:30 Uhr)): 18,8 Bienen / min / m^2
- Aktivität der Nahrungssuche, Zahl der Bienen / min / m^2 (Apis mellifera [2]; 75 g a.s./ha, 2 DAA): 33,3 Bienen / min / m^2
- Aktivität der Nahrungssuche, Zahl der Bienen / min / m^2 (Apis mellifera [2]; 75 g a.s./ha, 3 DAA): 40,3 Bienen / min / m^2
- Aktivität der Nahrungssuche, Zahl der Bienen / min / m^2 (Apis mellifera [2]; 75 g a.s./ha, 6 DAA): 37,8 Bienen / min / m^2
- Aktivität der Nahrungssuche, Zahl der Bienen / min / m^2 (Apis mellifera [2]; 75 g a.s./ha, -1 DAA (before application)): 27,3 Bienen / min / m^2
- Aktivität der Nahrungssuche, Zahl der Bienen / min / m^2 (Apis mellifera [2]; 75 g a.s./ha, -2 DAA (before application)): 34,8 Bienen / min / m^2
- Aktivität der Nahrungssuche, Zahl der Bienen / min / m^2 (Apis mellifera [2]; [4]): 26,5 Bienen / min / m^2
- Aktivität der Nahrungssuche, Zahl der Bienen / min / m^2 (Apis mellifera [2]; 150 g a.s./ha, 0 DAA a (09:30 Uhr)): 28,3 Bienen / min / m^2
- Aktivität der Nahrungssuche, Zahl der Bienen / min / m^2 (Apis mellifera [2]; 150 g a.s./ha, 0 DAA c (14:15 Uhr)): 40,2 Bienen / min / m^2
- Aktivität der Nahrungssuche, Zahl der Bienen / min / m^2 (Apis mellifera [2]; 150 g a.s./ha, 0 DAA e (17:15 Uhr)): 39 Bienen / min / m^2
- Aktivität der Nahrungssuche, Zahl der Bienen / min / m^2 (Apis mellifera [2]; 150 g a.s./ha, 1 DAA b (15:30 Uhr)): 19,2 Bienen / min / m^2
- Aktivität der Nahrungssuche, Zahl der Bienen / min / m^2 (Apis mellifera [2]; 150 g a.s./ha, 2 DAA): 35,7 Bienen / min / m^2
- Aktivität der Nahrungssuche, Zahl der Bienen / min / m^2 (Apis mellifera [2]; 150 g a.s./ha, 3 DAA): 39,3 Bienen / min / m^2
- Aktivität der Nahrungssuche, Zahl der Bienen / min / m^2 (Apis mellifera [2]; 150 g a.s./ha, 6 DAA): 37,5 Bienen / min / m^2
- Aktivität der Nahrungssuche, Zahl der Bienen / min / m^2 (Apis mellifera [2]; 150 g a.s./ha, -1 DAA (before application)): 26,3 Bienen / min / m^2
- Aktivität der Nahrungssuche, Zahl der Bienen / min / m^2 (Apis mellifera [2]; 150 g a.s./ha, -2 DAA (before application)): 34,2 Bienen / min / m^2
- Aktivität der Nahrungssuche, Zahl der Bienen / min / m^2 (Apis mellifera [2]; [5]): 27 Bienen / min / m^2
- Aktivität der Nahrungssuche (Apis mellifera [2]; result in words, tunnel test, spray, I-5 75 und 150 g a.s./ha, Thiamethoxam 50 g a.s./ha directly after application): keine Änderung
- Anteil an Zellen: Eier (Apis mellifera [3]; 1 Tag vor Applikation): 13,9%
- Anteil an Zellen: Larven (Apis mellifera [3]; 1 Tag vor Applikation): 9,2%
- Anteil an Zellen: Leer (Apis mellifera [3]; 1 Tag vor Applikation): 26,7%
- Anteil an Zellen: Nektar (Apis mellifera [3]; 1 Tag vor Applikation): 12,5%
- Anteil an Zellen: Pollen (Apis mellifera [3]; 1 Tag vor Applikation): 3,1%
- Anteil an Zellen: Puppen (Apis mellifera [3]; 1 Tag vor Applikation): 34,7%
- Anteil an Zellen: Eier (Apis mellifera [3]; 6 Tage nach Applikation): 14,7%
- Anteil an Zellen: Larven (Apis mellifera [3]; 6 Tage nach Applikation): 8,3%
- Anteil an Zellen: Leer (Apis mellifera [3]; 6 Tage nach Applikation): 32,8%
- Anteil an Zellen: Nektar (Apis mellifera [3]; 6 Tage nach Applikation): 12,5%
- Anteil an Zellen: Pollen (Apis mellifera [3]; 6 Tage nach Applikation): 4,4%
- Anteil an Zellen: Puppen (Apis mellifera [3]; 6 Tage nach Applikation): 27,2%
- Anteil an Zellen: Eier (Apis mellifera [3]; 14 Tage nach Applikation): 21,4%
- Anteil an Zellen: Larven (Apis mellifera [3]; 14 Tage nach Applikation): 19,7%
- Anteil an Zellen: Leer (Apis mellifera [3]; 14 Tage nach Applikation): 30,6%
- Anteil an Zellen: Nektar (Apis mellifera [3]; 14 Tage nach Applikation): 8,6%
- Anteil an Zellen: Pollen (Apis mellifera [3]; 14 Tage nach Applikation): 5%
- Anteil an Zellen: Puppen (Apis mellifera [3]; 14 Tage nach Applikation): 14,7%
- Anteil an Zellen: Eier (Apis mellifera [3]; 27 Tage nach Applikation): 16,7%
- Anteil an Zellen: Larven (Apis mellifera [3]; 27 Tage nach Applikation): 6,7%
- Anteil an Zellen: Leer (Apis mellifera [3]; 27 Tage nach Applikation): 20,7%
- Anteil an Zellen: Nektar (Apis mellifera [3]; 27 Tage nach Applikation): 13,2%
- Anteil an Zellen: Pollen (Apis mellifera [3]; 27 Tage nach Applikation): 3,3%
